Patent US20130177609A1, “Compositions and Methods for Increasing Bioavailability of Topical Ophthalmic Drugs” (priority 2008, published 2013)

Experiment: Example 1: ocular tissue pharmacokinetics after topical dose, increasing dose volume at constant drug concentration
Format: in vivo, pigmented male rabbits (Dutch Belted)
Settings: for AUC(0-t) / DNAUC / Cmax / Tmax: topical ocular; for Cmax / Tmax: male, Dutch Belted, rabbit, topical or ocular
Procedure: An aqueous suspension comprising 0.1 mg/mL of the compound having Formula III (BOL-303242-X), 100 mg/mL PEG 3350, and 10 mg/mL Tween® 80 was prepared substantially as disclosed above.
This study was carried out using a non-crossover design and a total of 84 naive pigmented male rabbits (Dutch Belted). Each rabbit was arbitrarily assigned to one of three dose groups.
On the day of dosing, each animal received a topical ocular dose of the suspension. Animals in Group 1 received a […] instillation, Group 2 received a 30-μL instillation and Group 3 received a 100-μL instillation. The target dose levels for these groups were 1, 3 and 10 μg/eye, respectively. The test composition was shipped to the test site as a ready-to-use suspension.
At predetermined time intervals after dosing, rabbits (four per collection time) were euthanized and the eyes enucleated and dissected. Samples of tear, conjunctiva, cornea, aqueous humor and iris/ciliary body were obtained from each animal and frozen until being shipped on dry ice to the analytical laboratory. Samples were collected at 0.0833, 0.25, 0.5, 1, 2, 4 and 6 hour after dosing. Concentrations of BOL-303242-X in ocular tissue samples were determined by LC/MS/MS. One or more samples of each tissue had concentrations that were below the lower limit of quantitation (“LLQ”). These samples were assigned a value of 0.5 times the LLQ for the purpose of calculating a mean concentration for pharmacokinetic (“PK”) analysis. In addition, the BOL-303242-X concentration measured in one tear sample collected at 6 hour was more than 100-fold higher than any other 6-hour sample for the same dose group. This value was considered to be an outlier, and was not included in any calculations.
Non-compartmental methods were used for pharmacokinetic analysis of concentration versus time data (WinNonlin version 5.2). Due to the destructive sampling regimen employed in this study average composite data were used in the PK analysis.

[1] = Conjunctiva, 10 μL of 0.1 mg/mL suspension (1 μg)
[2] = Conjunctiva, 30 μL of 0.1 mg/mL suspension (3 μg)
[3] = Conjunctiva, 100 μL of 0.1 mg/mL suspension (10 μg)
[4] = Cornea, 10 μL of 0.1 mg/mL suspension (1 μg)
[5] = Cornea, 30 μL of 0.1 mg/mL suspension (3 μg)
[6] = Cornea, 100 μL of 0.1 mg/mL suspension (10 μg)
[7] = Iris/Ciliary Body, 10 μL of 0.1 mg/mL suspension (1 μg)
[8] = Iris/Ciliary Body, 30 μL of 0.1 mg/mL suspension (3 μg)
[9] = Iris/Ciliary Body, 100 μL of 0.1 mg/mL suspension (10 μg)
[10] = Tear, 10 μL of 0.1 mg/mL suspension (1 μg)
[11] = Tear, 30 μL of 0.1 mg/mL suspension (3 μg)
[12] = Tear, 100 μL of 0.1 mg/mL suspension (10 μg)
[13] = 1 ug, Conjunctiva, 10 μL of 0.1 mg/mL suspension (1 μg)
[14] = 1 ug, Cornea, 10 μL of 0.1 mg/mL suspension (1 μg)
[15] = 1 ug, Iris/Ciliary Body, 10 μL of 0.1 mg/mL suspension (1 μg)
[16] = 1 ug, Tear, 10 μL of 0.1 mg/mL suspension (1 μg)
[17] = 3 ug, Conjunctiva, 30 μL of 0.1 mg/mL suspension (3 μg)
[18] = 3 ug, Cornea, 30 μL of 0.1 mg/mL suspension (3 μg)
[19] = 3 ug, Iris/Ciliary Body, 30 μL of 0.1 mg/mL suspension (3 μg)
[20] = 3 ug, Tear, 30 μL of 0.1 mg/mL suspension (3 μg)
[21] = 10 ug, Conjunctiva, 100 μL of 0.1 mg/mL suspension (10 μg)
[22] = 10 ug, Cornea, 100 μL of 0.1 mg/mL suspension (10 μg)
[23] = 10 ug, Iris/Ciliary Body, 100 μL of 0.1 mg/mL suspension (10 μg)
[24] = 10 ug, Tear, 100 μL of 0.1 mg/mL suspension (10 μg)

For `Cc1ccc2c(NCC(O)(CC(C)(C)c3cc(F)cc4c3OCC4)C(F)(F)F)cccc2n1` (stereo not shown) [BOL-303242-X], the “AUC(0-t)” value [1] was 245 ng·h/g, the DNAUC [1] was 245 ng*hr/g ÷ μg dose and the “AUC(0-t)” value [2] was 487 ng·h/g. For the same molecule, the DNAUC [2] was 162 ng*hr/g ÷ μg dose, the “AUC(0-t)” value [3] was 741 ng·h/g and the DNAUC [3] was 74.1 ng*hr/g ÷ μg dose. The “AUC(0-t)” value [4] was 270 ng·h/g, the DNAUC [4] was 270 ng*hr/g ÷ μg dose and the “AUC(0-t)” value [5] was 634 ng·h/g. For the same molecule, the DNAUC [5] was 211 ng*hr/g ÷ μg dose, the “AUC(0-t)” value [6] was 955 ng·h/g and the DNAUC [6] was 95.5 ng*hr/g ÷ μg dose. The “AUC(0-t)” value [7] was 32.0 ng·h/g, the DNAUC [7] was 32.0 ng*hr/g ÷ μg dose and the “AUC(0-t)” value [8] was 33.8 ng·h/g. For the same molecule, the DNAUC [8] was 11.3 ng*hr/g ÷ μg dose, the “AUC(0-t)” value [9] was 30.5 ng·h/g and the DNAUC [9] was 3.05 ng*hr/g ÷ μg dose. For the same molecule, the “AUC(0-t)” value [10] was 8870 ng·h/g, the DNAUC [10] was 8870 ng*hr/g ÷ μg dose and the “AUC(0-t)” value [11] was 12600 ng·h/g. The DNAUC [11] was 4200 ng*hr/g ÷ μg dose, the “AUC(0-t)” value [12] was 25600 ng·h/g and the DNAUC [12] was 2560 ng*hr/g ÷ μg dose. It also gave a Cmax (1 ug, Aqueous Humor, 10 μL of 0.1 mg/mL suspension (1 μg)) of less than 1 ng/mL, a Cmax [13] of 292 ± 137 ng/g and a Tmax [13] of 4.98 min. It also gave a Cmax [14] of 288 ± 116 ng/g, a Tmax [14] of 15 min and a Cmax [15] of 19.6 ± 29.8 ng/g. The Tmax [15] was 60 min, the Cmax [16] was 16300 ± 7000 ng/g and the Tmax [16] was 4.98 min. It also gave a Cmax (3 ug, Aqueous Humor, 30 μL of 0.1 mg/mL suspension (3 μg)) of less than 1 ng/mL, a Cmax [17] of 684 ± 446 ng/g and a Tmax [17] of 4.98 min. For the same molecule, the Cmax [18] was 716 ± 234 ng/g, the Tmax [18] was 4.98 min and the Cmax [19] was 13.1 ± 19 ng/g. It also gave a Tmax [19] of 120 min, a Cmax [20] of 28100 ± 11300 ng/g and a Tmax [20] of 15 min. The Cmax (10 ug, Aqueous Humor, 100 μL of 0.1 mg/mL suspension (10 μg)) was less than 1 ng/mL, the Cmax [21] was 1050 ± 531 ng/g and the Tmax [21] was 4.98 min. It also gave a Cmax [22] of 955 ± 619 ng/g, a Tmax [22] of 4.98 min and a Cmax [23] of 11.3 ± 8.05 ng/g. It also gave a Tmax [23] of 60 min, a Cmax [24] of 36700 ± 21400 ng/g and a Tmax [24] of 15 min. The “increase in exposure with increasing instillation volume” value (tear, cornea and conjunctiva, 10, 30, 100 μL of 0.1 mg/mL) was “less than proportional to the administered dose/volume”.
